#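 Assay format: 96-well plates, 48-hour exposure. Here, GI50 denotes the concentration required for 50% inhibition of growth. TGI: total growth inhibition.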
# How the values were obtained:
# Assay in all cases: growth of human tumour cells (NCI), 48 h
# [1] = test system: 786-0 renal
# [2] = test system: HS 578T breast
# [3] = test system: UACC-62 melanoma
# [4] = test system: KM12 colon
# [5] = test system: HCT-15 colon
# [6] = test system: OVCAR-8 ovarian
# [7] = test system: M14 melanoma
# [8] = test system: OVCAR-3 ovarian
Compound,GI50 [1] [µM],TGI [1] [µM],GI50 [2] [µM],TGI [2] [µM],GI50 [3] [µM],TGI [3] [µM],GI50 [4] [µM],TGI [4] [µM],GI50 [5] [µM],TGI [5] [µM],GI50 [6] [µM],TGI [6] [µM],GI50 [7] [µM],TGI [7] [µM],GI50 [8] [µM],TGI [8] [µM]
CCN1C(=O)N(CC)C2C1NN=c1s/c(=C\c3cc4ccccc4[nH]3)c(=O)n12 (configuration not stated),0.0387,22.3,< 0.0203,9.1,< 0.0111,7.83,< 0.012,> 58.6,0.0324,> 100,< 0.0191,31.3,0.0237,> 100,–,–
CN(C)CC1CCCCCC(CN(C)C)C1=O (configuration not stated),12.8,33.2,21,> 64.3,8.12,22.9,15.9,37.1,1.24,4.26,2.61,8.54,1.19,11.9,1.48,5.05
C=C1CCC2C3(C)COC(c4ccccc4Br)OC3CCC2(C)C1C/C=C1/C(=O)OCC1OC(C)=O (configuration not stated),1.63,2.98,1.89,4.65,1.42,2.86,1.55,3.12,0.73,2.25,0.584,1.8,1.53,2.86,0.932,2.47
O=C(OCCBr)c1ccc(Cl)c([N+](=O)[O-])c1,18.6,34.1,3.13,> 26.4,14.5,28.5,5,10.9,16.3,32.4,17.3,35.2,16.4,36.6,2.69,6.43
COc1cc(C2C3=C(COC3=O)Nc3cc4c(cc32)CCC4)cc2c1OCO2 (configuration not stated),0.0881,14.6,0.0425,21.3,0.051,17.7,0.0305,0.12,0.0728,> 62.1,0.0399,1.99,0.0743,3.48,0.0231,0.047
COc1cc(C(=O)/C=C/c2cccnc2Nc2ccccc2)cc(OC)c1OC,1.29,2.65,2.15,7.93,1.29,2.6,0.929,2.54,0.744,2.4,1.27,3.49,1.5,2.92,0.429,1.48
Nc1ccc(-c2ccc(N)cc2I)c(I)c1,17.3,36.9,17.1,88.3,12.1,33.2,14.5,36.5,13.7,34.1,27.1,94.7,12.2,34.4,16.6,35.3
Cc1ccc2c(c1)C(=O)c1c-2n(CCCBr)c(=O)c2cc([N+](=O)[O-])ccc12,57.5,> 100,> 100,> 100,26.1,> 100,> 100,> 100,97.8,> 100,> 100,> 100,45.8,> 100,71.1,> 100
COc1cc(C2CC(c3ccc(N(C)C)cc3)=NN2C(C)=O)cc(OC)c1OC (configuration not stated),2.36,> 78,0.441,3.03,1.48,> 100,0.933,> 52.8,1,> 100,6.13,> 100,1.39,> 100,0.352,1.84
Cn1ccnc1C(=O)/C=C/c1ccc(CC(=O)Nc2ccc(C(F)(F)F)cc2)cc1,1.81,4.07,6.14,> 16.7,3.16,7.65,3.23,8.69,1.4,> 16.7,4.9,> 16.7,3.72,8.3,2.95,6.88
C=CCNC(=O)NCCCC(NC(C)=O)C(=O)NCc1ccccc1 (configuration not stated),–,> 100,–,–,–,> 100,–,> 100,–,> 100,–,> 100,–,> 100,–,> 100
c1ccc(CSc2nnc3c4ccccc4c4ccccc4c3n2)cc1,–,> 92.5,–,> 100,–,> 100,–,> 100,–,> 100,–,> 100,–,> 100,–,> 70.9
COC(=O)C(F)C(Br)C(=O)OC (configuration not stated),–,6.03,–,68.6,–,30.4,–,50.6,–,3.84,–,12.6,–,13.4,–,4.33
COCCNc1cc(NC(=O)N2CCCc3cc(CN4CCN(C)CC4=O)c(C=O)nc32)ncc1C#N,29.5,> 50,23.7,> 50,> 50,> 50,> 50,> 50,33.1,> 50,> 50,> 50,> 50,> 50,> 50,> 50
COc1ccc(-c2nn(-c3cccc(Cl)c3)cc2-c2cc(-c3ccccc3)nc(N)n2)cc1,4.94,26.4,3.03,18.4,8.06,26,2.05,4.39,3.6,16.1,1.9,3.78,2.69,13.2,4.53,15.3
CC(C)N1C(NNC(=O)c2cnccn2)=NS(=O)(=O)c2ccccc21,> 100,> 100,> 100,> 100,> 100,> 100,> 100,> 100,> 100,> 100,> 100,> 100,> 100,> 100,> 100,> 100
CCOc1ccccc1/C=N\N=C(\N)N/N=C/c1ccccc1OCC,4.42,> 100,1.65,7.26,0.914,> 100,1.89,> 100,1.46,> 100,3.76,> 100,–,–,1.69,4.48
C/C=C/[C@@H]1OC(=O)C2=C[C@@H](O)[C@@H](/C=C/C)O[C@H]21,2.53,8.36,17.1,41.2,13.9,28.9,16.9,38.9,2.82,17.2,13.4,34.1,3.23,8.12,2.45,13.1
Cn1cc(-c2ccc(-c3cn(C)c4ccc(Cl)cc34)s2)c2cc(Cl)ccc21,> 100,> 100,> 100,> 100,> 100,> 100,> 100,> 100,> 100,> 100,> 100,> 100,> 100,> 100,> 100,> 100
CCCCNC(=O)NS(=O)(=O)c1ccc(N2N=C(c3cc(C)ccc3C)CC2c2cc(OC)c(OC)c(OC)c2)cc1 (configuration not stated),3.51,16.1,2.2,5.78,1.83,4.27,2.25,5.26,2.81,11.1,3.03,10.5,2.14,5.97,2.07,3.99
CSc1ccccc1C#Cc1ccccc1C#CCCCCO,11,26.6,7.62,32.3,13,25.7,3.39,16.9,3.85,15.9,18.7,41.7,–,–,14.7,28.7
CC(=O)O[C@H]1CC[C@@]2(C)[C@@H](CC[C@@H]3[C@@H]2CC[C@]2(C)C=C(C=O)C[C@@H]32)C1,19.5,37.3,4.41,50.1,–,–,12.7,30,2.26,12.1,2.96,9.59,4.74,20.8,3.1,9.04
O=C(CCCSc1nc(-c2ccccc2)cc(-c2ccc(Cl)cc2)n1)NO,1.47,13.3,4.78,24,1.45,3.89,2.96,14.2,0.382,13.5,0.596,16.2,–,–,0.675,9.38
CCCCCCCOc1c(OC)cc(C2CC(=O)Nc3c2c(C)nn3-c2nc3ccccc3[nH]2)cc1OC (configuration not stated),3.61,21.8,1.35,4.43,2.54,7.3,2.81,9.81,3.12,> 100,4.28,> 100,4.01,> 100,–,–

# Source: PubChem BioAssay (NCI)
